How the values were obtained:
[1] = system: PBMCs; test: PBMC flow cytometry, percentages of immune subsets; type: cell-based, human
Experimental: Percentage of immune subsets in PBMCs in lab blood drawn. PBMC were isolated from peripheral blood of donors using ficoll-hypaque gradient centrifugation. The percentages of each cell subset in PBMCs were determined by flow cytometric analysis after staining with specific fluorescent conjugated antibodies directed to the cell surface receptors. No significant differences in the percentages of immune subsets between the donors (FIG. 1A and FIG. 1B).

[2] = system: Dental Pulp Stromal Cells (DPSCs); test: NAC blocking of H2O2 mediated cell death in DPSCs; type: cell-based, human; conditions: NAC 20 mM, 24 hours, FIG. 67
Experimental: Testing and selection of the best NAC to be used in ALS treatment. […] Afterwards DPSCs were detached, and the viability of cells was determined after PI staining followed by flow cytometric analysis. In this figure the decrease in FS/ss and the percentage of PI stained cells were assessed.

[3] = ALS patient H107 JC, Post-NAC, Pre-young plasma
[4] = ALS patient H110 RS, Post-NAC infusion

With `CC(=O)N[C@@H](CS)C(=O)O` [NAC, N-Acetyl-Cysteine] the “CD4, percentage of immune subset” value [1, 3] was 31.4%, the “CD8, percentage of immune subset” value [1, 3] was 15.1% and the “CD14, percentage of immune subset” value [1, 3] was 15.0%. The “CD19, percentage of immune subset” value [1, 3] was 24.6%, the “NK, percentage of immune subset” value [1, 3] was 11.5% and the “NKT, percentage of immune subset” value [1, 3] was 3.58%. The “total of immune subsets” value [1, 3] was 97.6%, the “CD4, percentage of immune subset” value [1, 4] was 27.6% and the “CD8, percentage of immune subset” value [1, 4] was 20.4%. The “CD14, percentage of immune subset” value [1, 4] was 27.1%, the “CD19, percentage of immune subset” value [1, 4] was 10.0% and the “NK, percentage of immune subset” value [1, 4] was 15.3%. For the same compound, the “total of immune subsets” value [1, 4] was 100.4% and the “H2O2 mediated cell death (Fs/ss and PI positive cells)” value [2] was “blocks H2O2 mediated Cell death in DPSCs”.

— patent US20240245770A1, “COMPOSITIONS AND METHODS FOR TREATING NEUROMUSCULAR DISORDERS” (The Regents of the University of California, priority 2019, published 2024)
